Experimental findings from patent publication US8946167B2, “Pharmaceutical compositions containing plasma protein” (priority 1997, dated 2015) are described below.

The structures appear in SMILES notation.

In one data set the test system is human gamma globulin. The experiment in a line: binding of active substance to human gamma globulin (ultrafiltration, HPLC). As to conditions: Example II.4; 2.25% human gamma globulin + 0.1 mg/ml paclitaxel in absolute ethanol 9:1; lyophilised, redissolved; UF.
Another data set has as its system histamine release. Briefly: hypersensitivity test: plasma histamine level in rats. As to conditions: around 7.0 mg/kG for paclitaxel i.v., blood after 2, 5 and 10 minutes. The data set is classed as in vivo, CRL (WI) BR male rats.

Description for histamine release: Our study was performed on CRL (WI) BR male rats weighing 130-150 g [14]. […] A group for each time point and dose contained 5 animals. The blood samples were collected into heparin containing tubes after 2, 5 and 10 minutes of treatment. The plasma was separated by quick centrifugation. The samples were stored at −70° C.
The histamine content of the sample was C^14-methylated by specific histamine-N-methyl-transferase enzyme. The histamine level was determined in the plasma samples measuring the C^14 radioactivity in the samples.

Take `CC(=O)O[C@H]1C(=O)[C@@]2(C)[C@H]([C@H](OC(=O)c3ccccc3)[C@]3(O)C[C@H](OC(=O)[C@H](O)[C@@H](NC(=O)c4ccccc4)c4ccccc4)C(C)=C1C3(C)C)[C@]1(OC(C)=O)CO[C@@H]1C[C@@H]2O` [paclitaxel]: in the data set on human gamma globulin, the “binding of paclitaxel to human gamma globulin” value is 98%. Also, the “histamine release induction (plasma histamine level)” value in the data set on histamine release is recorded as “do not show any such effect”.
